From US5977435A, “Plant phosphatases” (Performance Plants, Inc., priority 1997, dated 1999)
Structures can show the parent of a compound that is named as a salt. Where two headings read alike, the source gives them in different places.

Legend:
potato phosphatase [1] = target: T1, potato phosphatase (Solanum tuberosum, UniProt Q6J5M8); experiment: Phosphatase assay B, substrate specificity; details: for activity of purified enzyme with compound as substrate: tested at 5 mM; for Vmax: pH 5.8, 25° C
T1 sequence (Q6J5M8 with tags, fused parts or gaps V118I/E238V/S277N/V282G/E319A/A394T/S415A/T416I/D418E/I426Y/H428S/N437A): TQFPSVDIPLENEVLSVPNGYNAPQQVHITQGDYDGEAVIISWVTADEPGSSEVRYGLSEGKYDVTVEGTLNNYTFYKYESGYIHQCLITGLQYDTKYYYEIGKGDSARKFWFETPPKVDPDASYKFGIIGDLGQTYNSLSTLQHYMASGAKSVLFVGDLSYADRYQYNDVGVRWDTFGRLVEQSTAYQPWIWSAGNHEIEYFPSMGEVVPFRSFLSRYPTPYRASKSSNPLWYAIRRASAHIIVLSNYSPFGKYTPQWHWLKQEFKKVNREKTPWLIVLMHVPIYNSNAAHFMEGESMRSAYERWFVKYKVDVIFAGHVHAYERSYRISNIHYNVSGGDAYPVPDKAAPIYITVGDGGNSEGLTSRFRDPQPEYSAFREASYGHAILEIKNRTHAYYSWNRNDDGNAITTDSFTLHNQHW
Protocol: Phosphatase activity was determined using assay B and a wide range of compounds, tested at a total concentration of 5 mM unless otherwise specified.
Phosphatase (0.05 units) was incubated in 1.5 mL cuvettes with 0.9 mL of 50 mM MES-NaOH (pH 5.8) containing 4 mM MgCl2 and an alternative substrate (5 mM unless otherwise indicated) for 6 min at 25° C. Reactions were terminated by the sequential addition of 0.1 mL reagent A (3 M H2 SO4 containing 20 mM ammonium molybdate) and […] of 1% (v/v) Triton X-100. Samples were incubated at 25° C. for 20 min and the A660 was determined. To calculate activities, a standard curve over the range of […] Pi was constructed for each set of assays. Assays were performed in triplicate and controls were run for background amounts of Pi present at each substrate concentration by adding reagent A before the enzyme.

potato phosphatase [2] = target: T1, potato phosphatase; experiment: biochemical; type: biochemical; parameters: mature chain from Thr30, C-terminus not determined
Protocol: Enzyme activity in the presence of effectors is expressed relative to the control set at 100%.
(§1) Assays were initiated by the addition of enzyme preparation. One unit of phosphatase activity is defined as the quantity of enzyme that would catalyze the hydrolysis of 1 […] of substrate/min at 25° C.

potato phosphatase [3] = target: T1, potato phosphatase; experiment: biochemical; type: biochemical; parameters: mature chain from Thr30, C-terminus not determined; details: for activation of the phosphatase: 4 mM, added as Cl- salt, Ca, Co, Mn with no added Mg2+
Protocol: Unless otherwise stated all kinetic studies of the potato phosphatase were performed with PEP using assay A (infra).
The phosphatase was activated approximately 40% in the presence of saturating (4 mM) Mg^2+ (added as MgCl2). Ca^2+, Co^2+, and Mn^2+ were individually tested as Cl^- salts at 4 mM, with no added Mg^2+, and found to uniformly activate the enzyme by about 30%. […]. […] All subsequent kinetic studies were conducted in the presence of 4 mM MgCl2.
as §1

[4] = system: potato tuber phosphotyrosyl proteins; experiment: Dephosphorylation of potato tuber phosphotyrosyl proteins by potato tuber phosphatase; type: biochemical, Solanum tuberosum; details: 1 mM present during incubation
Protocol: A desalted potato tuber extract was incubated at 25° C. in the absence (-) and presence (+) of 30 units/mL purified potato tuber phosphatase. Aliquots were removed at 2 and 19 h and analyzed by immunoblotting using anti-(P-Tyr) IgG (Kamps and Sefton, 1988). The relative P-Tyr content of the 7 antigenic polypeptides was estimated by laser densitometric quantification of the immunoblots as described in the examples. Unless otherwise noted, all values represent the means±SE of triplicate determinations. ^a, the mean of duplicate determinations.
Electroblotting was performed by the method of Moorhead and Plaxton (1990), with the addition of […] o-vanadate to the transfer buffer when maintenance of phosphotyrosyl residues was desired. All immunoblots to be probed with the anti-(black mustard PEP-specific phosphatase) IgG (Duff et al, 1991a) were first pre-treated with sodium m-periodate according to Laine (1988) so as to oxidize antigenic oligosaccharide chains of endogenous tuber glycoproteins. Immunological detection of phosphotyrosylated tuber proteins using anti-(P-Tyr) IgG (Kamps and Sefton, 1988) was performed as referenced above except that the blocking buffer contained 5% (w/v) bovine serum albumin (fraction V) and 1% (w/v) ovalbumin instead of 3% (w/v) defatted milk powder.
Antigenic polypeptides were visualized using an alkaline-phosphatase-taggedsecondary antibody (Moorhead and Plaxton, 1990). Immunological specificities were confirmed by performing immunoblots in which rabbit preimmune serum was substituted for the affinity-purified IgGs. An LKB Ultroscan XL Enhanced Laser Densitometer was used to scan indicated immunoblots. Densitometric data were analysed using the LKB Gelscan XL software (version 2.1). Immunoreactive polypeptides were quantified in terms of their relative absorbance at 633 nm wavelength (A633).
Peeled and diced potato tuber tissue (5 g) was homogenized with a Polytron in 1 volume of 100 mM MES-NaOH (pH 5.8) containing 2 mM PMSF, 2 mM DTT, and 1 mM EDTA. The homogenate was centrifuged for 10 min at 13,000 g in an Eppendorf microfuge, and a 3-mL aliquot of the supernatant fluid was passed at 4° C. through a BioRad Econo-Pac 10DG desalting column that had been pre-equilibrated in homogenization buffer lacking PMSF. Aliquots (0.1 mL) of the desalted crude extract were incubated at 25° C. with and without 3 units of the purified potato phosphatase. Samples were removed at 0, 2 and 19 h and analyzed by immunoblotting using the anti-(P-Tyr) IgG as described supra. Laser densitometric scanning and immunoquantification of the blots was performed as described supra.

[5] = pH 5.8; read-out: Relative Activity
[6] = addition 5 mM; PEP 0.25 mM; control = 100%
[7] = pH 5.8, read-out: Relative Activity
[8] = 5 mM; PEP 0.25 mM; no effect = ±15% control activity
[9] = purified potato phosphatase, assay B
[10] = addition 0.001 mM; PEP 0.25 mM; control = 100%

Nc1ncnc2c1ncn2[C@@H]1O[C@H](COP(=O)(O)O)[C@@H](O)[C@H]1O [AMP]
activity of purified enzyme with compound as substrate (potato phosphatase [1]; assay B): little or no activity

O=C1O[C@H]([C@@H](O)CO)C(O)=C1O [Ascorbate]
activity at 5000 µM (potato phosphatase [2]; [5]): 12%

N[C@@H](CC(=O)O)C(=O)O [Asparatate]
Relative Activity (potato phosphatase [2]; [6]): 64%

[Ca+2] [Ca^2+]
activation of the phosphatase (potato phosphatase [3]): about 30%

[Co+2] [Co^2+]
activation of the phosphatase (potato phosphatase [3]): about 30%

O=C(O)CN(CCN(CC(=O)O)CC(=O)O)CC(=O)O [EDTA]
inhibition at 5000 µM (potato phosphatase [3]; pH 5.8, read-out: reduction of activity): ~65%
activity at 5000 µM (potato phosphatase [2]; [7]): 32%

O=C(O)CN(CCOCCOCCN(CC(=O)O)CC(=O)O)CC(=O)O [EGTA]
activity at 5000 µM (potato phosphatase [2]; [5]): 72%

N[C@@H](CCC(=O)N[C@@H](CS)C(=O)NCC(=O)O)C(=O)O [GSH]
activity at 5000 µM (potato phosphatase [2]; [7]): 131%

O=P(O)(O)OC1O[C@H](CO)[C@@H](O)[C@H](O)[C@H]1O (stereo partly drawn) [Glc-1-P]
activity of purified enzyme with compound as substrate (potato phosphatase [1]; assay B): little or no activity

NC(CCC(=O)O)C(=O)O (stereo not drawn) [Glutaamate]
activity at 5000 µM (potato phosphatase [2]; [5]): 30%

[Cl-].[K+] [KCl]
effect on enzyme activity (potato phosphatase [2]; [8]): no effect

Nc1ncnc2c1ncn2[C@@H]1O[C@H](COP(=O)(O)OP(=O)(O)O)[C@@H](O)[C@H]1O [Mg-ADP]
Vmax (potato phosphatase [1]; [9]): 46 units/mg

O=C(O)CC(O)(CC(=O)O)C(=O)O [Mg-citrate]
effect on enzyme activity (potato phosphatase [2]; [8]): no effect

[Cl-].[Cl-].[Mg+2] [Mg^2+]
activation of the phosphatase (potato phosphatase [3]): approximately 40%

[Mn+2] [Mn^2+]
activation of the phosphatase (potato phosphatase [3]): about 30%

CCN1C(=O)C=CC1=O [N-ethylmaleimide]
effect on enzyme activity after preincubation of enzyme (potato phosphatase [2]; 1 mM, preincubation up to 2 min at 25° C): no effect

[Cl-].[Na+] [NaCl]
effect on enzyme activity (potato phosphatase [2]): no effect

[F-].[Na+] [NaF]
Relative Activity (potato phosphatase [2]; [6]): 56%

C[C@@H](OP(=O)(O)O)[C@H](N)C(=O)O [P-Tbr]
Vmax (potato phosphatase [1]; [9]): 99 units/mg

C=C(OP(=O)(O)O)C(=O)O [PEP]
Vmax (potato phosphatase [1]; [9]): 764 units/mg

O=P(O)(O)OP(=O)(O)O [PPi]
Km (potato phosphatase [1]; apparent Km, purified potato phosphatase, assay B): 4.42 mM
Vmax (potato phosphatase [1]; [9]): 1728 units/mg

O=P(O)(O)OC1C(OP(=O)(O)O)C(OP(=O)(O)O)C(OP(=O)(O)O)C(OP(=O)(O)O)C1OP(=O)(O)O (stereo not drawn) [Phytate, the salt of 1,2,3,4,5,6-cyclohexanehexolphosphoric acid]
activity at 100 µM (potato phosphatase [2]; [5]): 48%

[O]=[V]([O-])([O-])[O-] [Vanadate]
effect on the phosphatase-caused decrease in protein P-Tyr content [4]: negated
Relative Activity (potato phosphatase [2]; addition 0.005 mM; PEP 0.25 mM; control = 100%): 40%
Relative Activity (potato phosphatase [2]; addition 0.05 mM; PEP 0.25 mM; control = 100%): 7%

[Cl-].[Cl-].[Zn+2] [ZnCl2]
inhibition of phosphatase activity (potato phosphatase [3]; 5 mM, in place of added Mg2+): completely inhibited

C=C1[C@@H](O)[C@@H]2O[C@]3(CC[C@H](/C=C/[C@@H](C)[C@@H]4CC(C)=C[C@@]5(O[C@H](C[C@@](C)(O)C(=O)O)CC[C@H]5O)O4)O3)CC[C@H]2O[C@@H]1[C@@H](O)C[C@H](C)[C@H]1O[C@@]2(CCCCO2)CC[C@H]1C [okadaic acid]
effect on enzyme activity (potato phosphatase [2]; 1 μM; PEP 0.25 mM; no effect = ±15% control activity): no effect

O=C(O)C(O)C(O)C(=O)O (stereo not drawn) [tartrate]
effect on enzyme activity (potato phosphatase [2]; [8]): no effect

Molybdate
Relative Activity (potato phosphatase [2]; [10]): 40%
Relative Activity (potato phosphatase [2]; addition 0.01 mM; PEP 0.25 mM; control = 100%): 7%
Relative Activity (potato phosphatase [2]; addition 1 mM; PEP 0.25 mM; control = 100%): 0%

NH4 Cl
effect on enzyme activity (potato phosphatase [2]; [8]): no effect

B1: Phosvitin: egg yolk storage phosphoprotein (protein)
chain: AEFGTEPDAKTSSSSSSASSTATSSSSSSASSPNRKKPMDEEENDQVKQARNKDASSSSRSSKSSNSSKRSSSKSSNSSKRSSSSSSSSSSSSRSSSSSSSSSSNSKSSSSSSKSSSSSSRSRSSSKSSSSSSSSSSSSSSKSSSSRSSSSSSKSSSHHSHSHHSGHLNGSSSSSSSSRSVSHHSHEHHSGHLEDDSSSSSSSSVLSKIWGRHEIYQ
modifications: phosphoserine (Ser is the predominant phosphorylated amino acid of phosvitin)
notes: egg yolk storage phosphoprotein
Relative Activity (potato phosphatase [2]; [10]): 19%
phosphoprotein phosphatase activity (potato phosphatase [1]; phosvitin at 50 μg/ml (125 .eta.M)): 220 units/mg
